Assay results as given in the supplement of paper PMC11451515.

Tested on: SEM cells
Test: cell viability relative to DMSO control; higher = less cytotoxic
Details: 48 h
How it was run: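 Cells were incubated for 48 h at 37°C before CellTiter-Glo One luminescence was read. The cells were NOMO1 or SEM (500 cells/well) or P12-Ichikawa (1000 cells/well) leukemia cells, adapted for at least four passages in each medium and seeded in 1536-well plates (5 μl). Dosing used library compounds in DMSO applied by pin over 11 threefold points, 47 μM to 0.79 nM. Viability is the per-plate percentage of DMSO wells, with cell-free wells as background.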

[1] = RPMI 5 mM glucose + 10% FBS, 0.000781 µM
[2] = RPMI 5 mM glucose + 10% FBS, 0.00234 µM
[3] = RPMI 5 mM glucose + 10% FBS, 0.00702 µM
[4] = RPMI 5 mM glucose + 10% FBS, 0.0211 µM
[5] = RPMI 5 mM glucose + 10% FBS, 0.0632 µM
[6] = RPMI 5 mM glucose + 10% FBS, 0.19 µM
[7] = RPMI 5 mM glucose + 10% FBS, 0.569 µM
[8] = RPMI 5 mM glucose + 10% FBS, 1.71 µM
[9] = RPMI 5 mM glucose + 10% FBS, 5.12 µM
[10] = RPMI 5 mM glucose + 10% FBS, 15.4 µM
[11] = RPMI 5 mM glucose + 10% FBS, 46.1 µM
[12] = RPMI 5 mM glucose + 10% dialyzed FBS, 0.000781 µM
[13] = RPMI 5 mM glucose + 10% dialyzed FBS, 0.00234 µM
[14] = RPMI 5 mM glucose + 10% dialyzed FBS, 0.00702 µM
[15] = RPMI 5 mM glucose + 10% dialyzed FBS, 0.0211 µM
[16] = RPMI 5 mM glucose + 10% dialyzed FBS, 0.0632 µM
[17] = RPMI 5 mM glucose + 10% dialyzed FBS, 0.19 µM
[18] = RPMI 5 mM glucose + 10% dialyzed FBS, 0.569 µM
[19] = RPMI 5 mM glucose + 10% dialyzed FBS, 1.71 µM
[20] = RPMI 5 mM glucose + 10% dialyzed FBS, 5.12 µM
[21] = RPMI 5 mM glucose + 10% dialyzed FBS, 15.4 µM
[22] = RPMI 5 mM glucose + 10% dialyzed FBS, 46.1 µM
[23] = HPLM + 10% dialyzed FBS, 0.000781 µM
[24] = HPLM + 10% dialyzed FBS, 0.00234 µM
[25] = HPLM + 10% dialyzed FBS, 0.00702 µM
[26] = HPLM + 10% dialyzed FBS, 0.0211 µM
[27] = HPLM + 10% dialyzed FBS, 0.0632 µM
[28] = HPLM + 10% dialyzed FBS, 0.19 µM
[29] = HPLM + 10% dialyzed FBS, 0.569 µM
[30] = HPLM + 10% dialyzed FBS, 1.71 µM
[31] = HPLM + 10% dialyzed FBS, 5.12 µM
[32] = HPLM + 10% dialyzed FBS, 15.4 µM
[33] = HPLM + 10% dialyzed FBS, 46.1 µM

Structure (SMILES) | cell viability [1] [%] | cell viability [2] [%] | cell viability [3] [%] | cell viability [4] [%] | cell viability [5] [%] | cell viability [6] [%] | cell viability [7] [%] | cell viability [8] [%] | cell viability [9] [%] | cell viability [10] [%] | cell viability [11] [%] | cell viability [12] [%] | cell viability [13] [%] | cell viability [14] [%] | cell viability [15] [%] | cell viability [16] [%] | cell viability [17] [%] | cell viability [18] [%] | cell viability [19] [%] | cell viability [20] [%] | cell viability [21] [%] | cell viability [22] [%] | cell viability [23] [%] | cell viability [24] [%] | cell viability [25] [%] | cell viability [26] [%] | cell viability [27] [%] | cell viability [28] [%] | cell viability [29] [%] | cell viability [30] [%] | cell viability [31] [%] | cell viability [32] [%] | cell viability [33] [%]
Nc1ccc(C(=O)c2cc3c(ccc4ccccc43)[nH]2)cc1 | 118 | 137 | 124 | 130 | 129 | 102 | 109 | 110 | 32.1 | 15.9 | 8.45 | 121 | 130 | 117 | 126 | 138 | 104 | 100 | 95 | 27.9 | 12.1 | 11.3 |  |  |  |  |  |  |  |  |  |  | 
CN(CCOc1ccc(CC2SC(=O)NC2=O)cc1)c1ccccn1 (stereo not given) | 76.7 | 94.7 | 85.4 | 102 | 84.2 | 81.9 | 90.5 | 95.1 | 85.7 | 97.3 | 104 | 107 | 119 | 113 | 117 | 113 | 107 | 112 | 106 | 121 | 114 | 122 | 116 | 117 | 121 | 106 | 113 | 123 | 117 | 115 | 124 | 121 | 116
COCCn1c2c([n+](Cc3cnccn3)c1C)C(=O)c1ccccc1C2=O | 116 | 128 | 114 | 110 | 71.4 | 15.5 | 7.97 | 8.06 | 5.61 | 4.16 | 2.77 | 105 | 132 | 117 | 91.1 | 46.2 | 12.6 | 8.08 | 7.35 | 5.94 | 4.15 | 3.55 | 128 | 113 | 123 | 50.7 | 23.5 | 11.2 | 7.74 | 8.7 | 8.71 | 4.23 | 3.41
CC1(C)CC\C2=C(/O1)C3=C(C=CC=C3)C(=O)C2=O | 127 | 115 | 94.1 | 124 | 129 | 117 | 117 | 102 | 108 | 76.3 | 3.64 | 105 | 121 | 95.4 | 102 | 114 | 119 | 100 | 84.5 | 72.9 | 55.8 | 2.69 | 103 | 117 | 86.2 | 112 | 113 | 110 | 98.8 | 94.7 | 95 | 78.9 | 4.79
CNC(=O)c1ccc2c(c1)NC(=O)/C2=C(\Nc1cccc(CN(C)C)c1)c1ccccc1 | 97 | 94.9 | 97.3 | 106 | 93.5 | 89.7 | 94.5 | 4.33 | 3.4 | 1.5 | 1.29 | 78.4 | 92.3 | 97.5 | 92.1 | 87.2 | 108 | 81.4 | 35.4 | 3.62 | 1.76 | 1.28 | 74.4 | 93.6 | 98.8 | 109 | 85.3 | 89.9 | 78.1 | 57.7 | 4.44 | 23.4 | 1.26
CCCN[C@H]1CCc2nc(N)sc2C1 | 91.7 | 39.1 | 99.4 | 87.3 | 96.2 | 98.9 | 103 | 97.6 | 85.6 | 105 | 104 | 89.2 | 37.6 | 98.3 | 101 | 119 | 125 | 106 | 105 | 112 | 111 | 91.4 | 93.2 | 42 | 98.4 | 98.8 | 104 | 96.4 | 95.4 | 99.2 | 104 | 99.8 | 105
CN1C(=O)/C(=C(NC2=CC=C(I)C=C2F)\C3=C1\N=C/N(C[C@@H](O)CO)C3=O)F | 79.2 | 98.6 | 107 | 91.8 | 74.6 | 73.2 | 53.9 | 60.2 | 68.5 | 12.8 | 30.6 | 77.5 | 71.3 | 90.8 | 93.2 | 69.6 | 64.2 | 54.8 | 54.8 | 53 | 14.2 | 28 | 77.3 | 76.4 | 92.5 | 90.9 | 89.6 | 79.6 | 70.6 | 59.6 | 65.6 | 18.6 | 51.3
